Measured values as given in patent US9938232B2, “LED photoinitiators” (SUN CHEMICAL CORPORATION, priority 2014, dated 2018).

Legend:
[1] = Solubility in water and organic solvents (observation); assay type: physicochemical
Experimental: After cooling, the pH of the solution was adjusted to 4 with about 100 ml of a 50 wt % aqueous solution of acetic acid to precipitate a yellow solid. The solid was collected by filtration and dissolved in a saturated aqueous solution (100 ml) of sodium carbonate. Insoluble material was removed by filtration and the pH of the filtrate was adjusted to 5 to 6 with aqueous acetic acid to precipitate a yellow solid. The solid was collected by filtration and re-crystallized from 130 ml ethanol.

[2] = UV-spectra measurement; assay type: physicochemical
Experimental: Spectra were acquired using a Unicam UV-2 UV/VIS spectro-photometer. All absorption spectra were obtained using 1 cm cuvettes, scanning within the 200-800 nm range. Solutions were prepared in a 100 cm^3 volumetric flask, and, if required, subsequently diluted so that a maximum absorbance of less than 2 was obtained. From the absorption the molar extinction coefficient e was calculated in liter*mol^−1*cm^−1.

[3] = Solubility in multifunctional acrylates; assay type: physicochemical; conditions: 10 and 20 weight % in PPTTA, TMPTA and EO-TMPTA, stirred 10 minutes at 45° C.
Experimental: • Mn: 1050 Da, Mw 1360 Da • IR: v [cm-1]: 3318, 2930, 2861, 1716 (s), 1641, 1590 (vs), 1525, 1450, 1364, 1284, 1228, 1146, 1068, 927, 826, 770 Solubility: • The product as obtained according to Example 10 was added to different multifunctional acrylates to check solubility. Propoxylated pentaerythritol tetraacrylate (SR 494 LM, Sartomer company) (PPTTA), trimethylol propane triacrylate (SR 351M, Sartomer company) (TMPTA) and ethoxylated trimethylol propane triacrylate (Ebecryl LEO 10501, Allnex company) (EO-TMPTA) were used. The compound of example 10 was added in amounts of 10 and 20 weight % to each of the acrylates and stirred for 10 minutes at 45° C. In all cases (even at 20 weight %), clear, intense yellow, transparent mixtures were obtained.

In the case of CN(C)c1ccc(C(=O)c2ccc(N(C)C)cc2C(=O)O)cc1 [Example 2, 5-(dimethylamino)-2-[4-(dimethylamino)benzoyl]-benzoic acid], the “Solubility in DMSO” value ([1]; DMSO) is reported as “soluble in DMSO” and the melting point is reported as 269 to 272 °C.

With CN(C)c1ccc(C(=O)c2ccc(N(C)C)cc2C(=O)[O-])cc1.[K+] [Example 6, 5-(dimethylamino)-2-[4-(dimethylamino)benzoyl]-benzoic acid potassium salt] the “UV-spectroscopy: λmax (H2O)” value ([2]; in H2O) was 365 nm, the Molar extinction coefficient ([2]; in water) was 36192 L/mol/cm and the “Solubility in methylene chloride” value ([1]; methylene chloride) was “limited solubility in methylene chloride”. For the same compound, the Solubility in water ([1]; water) was “good solubility in water”.

In the case of CCCCOCC(COC(=O)c1cc(N(C)C)ccc1C(=O)c1ccc(N(C)C)cc1)OC(=O)NCCCCCCNC(=O)OC(COCCCC)COC(=O)c1cc(N(C)C)ccc1C(=O)c1ccc(N(C)C)cc1 (stereo not shown) [Example 10], the “Solubility in multifunctional acrylates” value [3] is reported as “very good solubility”.
